This note sets out measurements from patent US10463730B2 (priority 2003, dated 2019).

In the assay the test system is xenogeneic GI-101A solid breast carcinoma tumors. Set-up: species or system nu-/nu-mice. To be noted: in vivo.

With `Nc1nc2c(ncn2COC(CO)CO)c(=O)[nH]1` [PBS+GCV, gancyclovir], the “Increase of average volume of tumors” value was 91.8%.
